Melting point data for 47 compounds are collected here from a melting point compilation (Tetko et al.).

By melting point is commonly meant the temperature, or range, at which the solid turns liquid. In turn, `CCOC(=O)c1cn[nH]c1C(F)F` yielded a melting point of 64 to 66 °C.

Regarding `Clc1nc(-c2cccs2)nc2scc(-c3ccccc3)c12`, the melting point was in the range of 143 to 145 °C.

On to `CCOc1cc(Br)c([N+](=O)[O-])cc1OCC`, for which the melting point lay within 62 to 64 °C.

Take `Cc1c(C(=O)O)c(=O)oc2cc(F)ccc12`: the melting point lay in the range of 169 to 171 °C.

Compound `c1ccc(C2CNCCS2)cc1` (configuration not stated) yielded a melting point of 60 to 62 °C.

For `Nc1ncc(Cc2cccc(C(=O)O)c2)s1`, the melting point was 217 to 219 °C.

The compound `Sc1nnc(-c2cccs2)[nH]1` registered a melting point of 239 to 241 °C.

In the case of `Cc1ccc(-c2nc(C)c(C(=O)O)s2)o1`, the melting point lay within 215 to 217 °C.

In turn, `Cc1c(N=C=S)c(=O)n(-c2ccccc2)n1C` had a melting point of 145 to 147 °C.

As to `CC(=O)N(C)Cc1ccc(C(=O)CCl)cc1`, the melting point fell in the range of 45 to 47 °C.

`O=[N+]([O-])c1ccccc1CSc1ncccn1`: the melting point lay within 60 to 62 °C.

Regarding `O=c1[nH]c2cnccc2n1Cc1ccccc1`, the melting point was in the range of 213 to 215 °C.

In turn, `CC(=O)Nc1ccc(F)c(C(=O)O)c1` gave a melting point of 259 to 261 °C.

In turn, `O=C(O)c1cc(F)cc2cccnc12` came in with a melting point of 159 to 161 °C.

In turn, `Cc1cccc(N2CCN(CCN)CC2)c1C` showed a melting point of 60 to 62 °C.

`O=C(O)c1cc2ccccc2n1Cc1ccccc1` showed a melting point of 197 to 199 °C.

`Cc1cc(C(=O)O)sc1-c1cccc(Cl)c1` had a melting point of 178 to 180 °C.

In the case of `Nc1sccc1C(=O)NC1CC1`, the melting point is 144 to 146 °C.

As for `CC(C)(C)C(=O)N1CCC(=O)CC1`, the melting point was in the range of 94 to 96 °C.

The compound `Cc1cc(N2CCSCC2)ccc1N` returned a melting point of 79 to 81 °C.

Consider `COc1ccc2[nH]c(C)c(C(=O)CCl)c2c1`, for which the melting point is 224 to 226 °C.

With `N#Cc1cccc(COc2ccc(N)cc2Cl)c1`, the melting point fell in the range of 112 to 114 °C.

In turn, `O=C(O)c1cnn(-c2ccc(Cl)nn2)c1C(F)(F)F` yielded a melting point of 99 to 101 °C.

In turn, `Oc1ncnc(Cl)c1I` displayed a melting point of 274 to 276 °C.

Take `Cc1cc(C(=O)NN)c(C)n1-c1ccc(F)cc1`: the melting point lay in the range of 160 to 162 °C.

Compound `CC(C)COc1ncc(C(=O)O)cc1Cl` gave a melting point of 106 to 108 °C.

Consider `Nc1ccccc1-c1nc(C2CC2)no1`, for which the melting point lay in the range of 84 to 86 °C.

As to `c1c[nH]c(C2CCCN2)c1` (configuration not stated), the melting point was 75 to 77 °C.

Turning to `S=C(NCc1cccnc1)NCc1cccnc1`, the melting point was 157 to 159 °C.

As for `CC(CC(=O)O)NS(=O)(=O)c1cccnc1Cl` (configuration not stated), the melting point was 144 to 146 °C.

`O=S(=O)(c1ccc2[nH]c(S)nc2c1)N1CCOCC1` gave a melting point of 285 to 287 °C.

Turning to `O=C(O)c1oc2ccccc2c1CO`, the melting point was 153 to 155 °C.

In the case of `CS(=O)(=O)CCC1NC(=O)NC1=O` (configuration not stated), the melting point was 160 to 162 °C.

Turning to `COCCCN1C(=O)c2ccc(C(=O)O)cc2C1=O`, the melting point was in the range of 147 to 149 °C.

As for `CCOc1ccc(N)cc1S(N)(=O)=O`, the melting point was in the range of 154 to 156 °C.

Take `O=C(O)c1cccnc1Sc1ccc(Br)cc1`: the melting point lay within 223 to 225 °C.

The compound `CC(O)CS(=O)(=O)c1ccccc1` (configuration not stated) displayed a melting point of 46 to 48 °C.

`NC(=O)c1ccn(-c2cccc(N)c2)n1` displayed a melting point of 177 to 179 °C.

With `CCOC(=O)c1cc(C(=O)O)cc([N+](=O)[O-])c1`, the melting point lay in the range of 178 to 180 °C.

Take `Cn1c(C(C)(C)C)nc2cc(N)ccc21`: the melting point lay within 164 to 166 °C.

The compound `Cc1ccc(NC(=O)CCl)cc1S(=O)(=O)N(C)C` displayed a melting point of 74 to 76 °C.

Take `NC1=NC(=O)c2ccccc21`: the melting point was in the range of 208 to 210 °C.

Consider `O=C1C(Br)CCN1c1ccccc1` (configuration not stated), for which the melting point fell in the range of 99 to 101 °C.

`O=C(O)c1c[nH]nc1-c1cccnc1` gave a melting point of 255 to 257 °C.

Turning to `Clc1c[nH]c2ccccc12`, the melting point is 79 to 81 °C.

Turning to `COc1ccc(NCc2ccc(N(C)C)cc2)cc1`, the melting point lay within 102 to 104 °C.

The compound `CC(C)(C)OC(=O)N1CCc2nc(N)sc2C1` had a melting point of 226 to 228 °C.
